In patent US4916220A, “Palmitoyl-fructose-1,6-diphosphate, its therapeutic use and relevant preparation methods” (Biomedica Foscama Industria Chimico-Farmaceutica, priority 1988, dated 1990):
Read-outs that look alike come from different tables or passages of the source.

Key:
perfused rat heart = assay: Action on perfused rat heart (inotropic and chronotropic); format: cell-based; details: for EC50: biphasic inotropic and chronotropic effect, read-out: ED50 (perfused rat heart); for action on perfused heart (inotropic and chronotropic): result in words, final concentration
[1] = test system: organs (heart, kidneys, liver); assay: Radioactivity accumulated in organs after administration per os to rats; format: in vivo, rat; details: 3,000,000 dpm total, 1 hour after administration
Description: The administration to rats of ^14 C-FDP and ^14 C-DPF per os (3,000,000 dpm total) allowed measurement of the radioactivity accumulated 1 hour after administration at the level of the organs and the results are reported in Table 2.

[2] = test system: entrance of ^45Ca in small slices of heart; assay: Effect on the entrance of ^45Ca in small slices of heart; format: cell-based; details: 3 min. at 25° C., 0.5 mM Ca; for effect on the entrance of ^45Ca: result in words
Description: The effect on the entrance of ^45 Ca in small slices of heart incubated for 3 min. at 25° C. with 0.5 mM Ca is inhibitory both with FDP and with DPF and therefore both seem to protect the tissue from the anoxy occurring with the entrance of Ca.

[3] = test system: small slices of rat heart; assay: Attack of ^14C-FDP and ^14C-DPF to small slices of rat heart; format: cell-based; details: for Attack to small slices of rat heart: 5 mM, 40 min incubation at 25° C., 3 tests average
Source text: Small slices of rat heart were used to study comparatively the attack of ^14 C-FDP and ^14 C-DPF, the latter obtained by palmitoylation of a mixture of "hot" and "cold" FDP.

With O=C(COP(=O)(O)O)[C@@H](O)[C@H](O)[C@H](O)COP(=O)(O)O [FDP, fructose-1,6-diphosphate] the EC50 (perfused rat heart; Rattus norvegicus) was 100 µM, the “action on perfused heart (inotropic and chronotropic)” value (perfused rat heart) was “biphasic, i.e. inotropic and chronotropic, positive at concentrations lower than 1 mM (final) and negative for higher concentrations” and the “Accumulation of radioactivity, Heart” value [1] was 508. The “Accumulation of radioactivity, Kidneys” value [1] was 395, the “Accumulation of radioactivity, Liver” value [1] was 624 and the “effect on the entrance of ^45Ca” value [2] was “inhibitory”. The IC50 ([2]; 0.05 h) was 8000 µM and the “Attack to small slices of rat heart” value [3] was 260 ± 20 nmoles/100 mg.
In the case of “palmitoyl-fructose-1,6-diphosphate [DPF]”, the EC50 (perfused rat heart) is reported as 40 µM, the “action on perfused heart (inotropic and chronotropic)” value (perfused rat heart) is reported as “biphasic effect but its effect appears at lower doses” and the “Accumulation of radioactivity, Heart” value [1] is reported as 1620. For the same compound, the “Accumulation of radioactivity, Kidneys” value [1] was 1324, the “Accumulation of radioactivity, Liver” value [1] was 1434 and the IC50 [2] was 5500 µM. For the same compound, the “effect on the entrance of ^45Ca” value [2] was “inhibitory”, the “Attack to small slices of rat heart” value [3] was 344 ± 16 nmoles/100 mg and the “membrane affinity higher than that of FDP” value ([3]; relative to FDP) was 30%.
